From US20250109127A1, “METHODS OF USE OF PHENOXYPROPYLAMINE COMPOUNDS TO TREAT DEPRESSION” (Minerva Neurosciences, Inc., priority 2013, published 2025)
“And” between values parts separate entries of the source, which are not always exact repeats. Equal entries are not always repeated.

System: DOPAC release in the rat prefrontal cortex
Assay: Microdialysis: DOPAC release in prefrontal cortex after I.P. administration
Assay type: in vivo
Conditions: Citalopram 10 mg/kg I.P.
Description: The aim of the study was to evaluate, using microdialysis, the effects of an intraperitoneal (I.P.) administration in rats of three different doses of SON-117 on dopamine and its metabolites, serotonin and its metabolite (5-HIAA), and norepinephrine levels in prefrontal cortex.
Thirty-two adult male Wistar rats were used for the whole study (4 groups of eight animals planned for the study, Table 1).
Surgery was performed on rats weighing about 300 g at the beginning of the experiments. Rats were anaesthetized with Ketamine (50 mg/kg) & Xylazine (15 mg/kg) by intramuscular administration. The animals were placed in a stereotaxic apparatus in the flat-skull position at a constant setting of −3.3 mm between ear bars and the incisor bar. The animals were treated with a local anesthesic (xylocaine 1%, Astra Zeneca) and an analgesic (Temgesic, from Schering Plough, 0.05 mg/kg, s.c.). A rostrocaudal midline incision was made with a lancet to expose the dorsal skull surface. The “stereotaxic zero” was defined by the Bregma in accordance with Paxinos and Watson's atlas (1986). A hole was drilled in the skull with a drill and the meninges were pierced with a sterile needle to implant a CMA12 guide cannula which later received the dialysis probe.
Coordinates used for implanting guide cannula in prefrontal cortex from Bregma were anteroposterior 3.7 mm, mediolateral 0.8 mm, and dorsoventral −2 mm (top of the probe was at −5 mm). The guide cannula was fixed to the skull with two stainless steel screws (1.88 mm outside diameter) anchored. An application of dental cement was added. A plastic collar allowed each animal to be tethered to a Swivel assembly of the CMA 120 awake animal system. Following surgery, rats were kept in individual cages and allowed to recover for a minimum of 3-5 days before the experimentation. The rats were handled and put in plastic bowl for 10 min at least every day to habituate the animals to their new environment for the dialysis. An I.P. administration with saline was also performed every day.
Dialysis probes (CMA12/3 mm, membrane, 20 kD cut-off, Carnegie Medicine, Stockholm, Sweden), were carefully washed before inserting into the guide cannula. The wash was performed with the artificial cerebrospinal fluid (aCSF) medium (NaCl 147 mM, KCl 2.7 mM, CaCl2 1.2 mM, MgCl2 0.85 mM) at room temperature. The dialysis system was then equilibrated at 20° C. at a perfusion rate of 1 μl/min with a Carnegie pump (CMA100). All catheters (FEP tubing, internal volume of 1.2 μl/10 cm, and tubing adaptors) used for microdialysis were treated in the same conditions.
The probes duly prepared were inserted into the guide cannula and the CMA120 Swivel assembly secured to the animal using a plastic collar. Flow through the dialysis probe with aCSF was maintained at a rate of 1 μl/min during the whole experimentation. The first four fractions (corresponding to 2 hours) were discarded to avoid the effects of parenchymal disturbance and to ensure that an approximate steady-state level was reached. Fractions were then collected over a period of 8.5 h during which time the animals remained quiet. The dialysates were automatically collected with an autosampler (microfraction collector CMA 140, Carnegie Medicin) and stored at −80° C. until analysis. […] Perfusion was then maintained for 7 hours with aCSF. The dialysates (30 μl) were collected into 300 μl vials, transferred into dry ice and then kept frozen (−80° C.) until analysis. Frozen samples were shipped to a partner for analysis. At the end of the microdialysis study, a PBS with colored ink was perfused through the probe in order to visualize the dialyzed area.
Catecholamine assay: Concentrations of dopamine, DOPAC, HVA, 5-HIAA, 5-HT, and norepinephrin were determined for each sample by HPLC coupled with electrochemical detection.

With `CN(C)CCCC1(c2ccc(F)cc2)OCc2cc(C#N)ccc21` (centres unmarked) [Citalopram, citalopram, reference compound] the “DOPAC in dialysate, MEAN” value (T0-T30 min) was 92.52 % of respective basal, the “DOPAC in dialysate, MEAN” value (T30-T1 h) was 101.61 % of respective basal and the “DOPAC in dialysate, individual animals” value (T30-T1 h) was 108.24 % of respective basal and 101.84 % of respective basal and 110.81 % of respective basal and 140.94 % of respective basal and 90.86 % of respective basal and 86.64 % of respective basal and 74.29 % of respective basal and 104.04 % of respective basal. For the same molecule, the “DOPAC in dialysate, MEAN” value (T1 h 30-T2 h) was 103.07 % of respective basal, the “DOPAC in dialysate, individual animals” value (T1 h 30-T2 h) was 97.22 % of respective basal and 94.96 % of respective basal and 95.81 % of respective basal and 121.29 % of respective basal and 99.84 % of respective basal and 90.48 % of respective basal and 98.93 % of respective basal and 130.18 % of respective basal and the “DOPAC in dialysate, MEAN” value (T1 h-T1 h 30) was 102.71 % of respective basal. For the same molecule, the “DOPAC in dialysate, individual animals” value (T1 h-T1 h 30) was 108.8 % of respective basal and 86.27 % of respective basal and 95.17 % of respective basal and 138.08 % of respective basal and 88.43 % of respective basal and 88.97 % of respective basal and 77.44 % of respective basal and 143.24 % of respective basal, the “DOPAC in dialysate, MEAN” value (T2 h 30-T3 h) was 86.26 % of respective basal and the “DOPAC in dialysate, individual animals” value (T2 h 30-T3 h) was 68.83 % of respective basal and 76.04 % of respective basal and 88.98 % of respective basal and 94.72 % of respective basal and 88.97 % of respective basal and 81.12 % of respective basal and 86.11 % of respective basal and 108.52 % of respective basal. For the same molecule, the “DOPAC in dialysate, MEAN” value (T2 h-T2 h 30) was 91.70 % of respective basal, the “DOPAC in dialysate, individual animals” value (T2 h-T2 h 30) was 100.58 % of respective basal and 87.15 % of respective basal and 91.10 % of respective basal and 94.66 % of respective basal and 82.72 % of respective basal and 76.32 % of respective basal and 84.28 % of respective basal and 120.05 % of respective basal and the “DOPAC in dialysate, MEAN” value (T3 h 30-T4 h) was 92.94 % of respective basal. For the same molecule, the “DOPAC in dialysate, individual animals” value (T3 h 30-T4 h) was 98.62 % of respective basal and 88.8 % of respective basal and 84.72 % of respective basal and 92.54 % of respective basal and 81.68 % of respective basal and 80.31 % of respective basal and 88.84 % of respective basal and 131.20 % of respective basal, the “DOPAC in dialysate, MEAN” value (T3 h-T3 h 30) was 89.35 % of respective basal and the “DOPAC in dialysate, individual animals” value (T3 h-T3 h 30) was 108.36 % of respective basal and 74.94 % of respective basal and 89.42 % of respective basal and 83.63 % of respective basal and 84.95 % of respective basal and 77.32 % of respective basal and 85.84 % of respective basal and 113.17 % of respective basal. The “DOPAC in dialysate, MEAN” value (T4 h 30-T5 h) was 97.96 % of respective basal, the “DOPAC in dialysate, individual animals” value (T4 h 30-T5 h) was 118.57 % of respective basal and 89.81 % of respective basal and 82.60 % of respective basal and 77.02 % of respective basal and 90.64 % of respective basal and 94.78 % of respective basal and 95.64 % of respective basal and 137.22 % of respective basal and the “DOPAC in dialysate, MEAN” value (T4 h-T4 h 30) was 94.89 % of respective basal. The “DOPAC in dialysate, individual animals” value (T4 h-T4 h 30) was 107.03 % of respective basal and 83.51 % of respective basal and 92.76 % of respective basal and 82.75 % of respective basal and 83.92 % of respective basal and 79.63 % of respective basal and 104.47 % of respective basal and 127.87 % of respective basal, the “DOPAC in dialysate, MEAN” value (T5 h 30-T6 h) was 101.76 % of respective basal and the “DOPAC in dialysate, individual animals” value (T5 h 30-T6 h) was 132.77 % of respective basal and 85.32 % of respective basal and 85.38 % of respective basal and 97.98 % of respective basal and 88.27 % of respective basal and 108.01 % of respective basal and 92.66 % of respective basal and 127.03 % of respective basal. The “DOPAC in dialysate, MEAN” value (T5 h-T5 h 30) was 93.03 % of respective basal, the “DOPAC in dialysate, individual animals” value (T5 h-T5 h 30) was 75.53 % of respective basal and 93.40 % of respective basal and 85.99 % of respective basal and 86.97 % of respective basal and 95.22 % of respective basal and 104.27 % of respective basal and 122.75 % of respective basal and the “DOPAC in dialysate, MEAN” value (T6 h 30-T7 h) was 100.53 % of respective basal. The “DOPAC in dialysate, individual animals” value (T6 h 30-T7 h) was 119.00 % of respective basal and 87.46 % of respective basal and 83.16 % of respective basal and 92.30 % of respective basal and 79.40 % of respective basal, the “DOPAC in dialysate, MEAN” value (T6 h-T6 h 30) was 96.87 % of respective basal and the “DOPAC in dialysate, individual animals” value (T6 h-T6 h 30) was 117.46 % of respective basal and 79.52 % of respective basal and 81.29 % of respective basal and 39.89 % of respective basal and 77.98 % of respective basal and 106.17 % of respective basal and 94.72 % of respective basal and 131.51 % of respective basal. The “DOPAC in dialysate, MEAN” value (T-30 min-T0 (pre-dose)) was 96.20 % of respective basal and the “DOPAC in dialysate, MEAN” value (T-1 h-T-30 min (pre-dose)) was 98.03 % of respective basal.
